Source: article PMC5556071, “ATR inhibition facilitates targeting of leukemia dependence on convergent nucleotide biosynthetic pathways” (Nature Communications, 2017)
Values joined by “and” are separate entries in the source; they are usually repeats but may differ in a detail not shown here. Equal entries are not always repeated.

System: CEM cells
Assay: Non-targeted LC-MS metabolite profiling: percent [13C6]glucose labeling and relative metabolite levels
Type: cell-based, human
Conditions: CEM cells, 12 h following release from G1 arrest, replicates #1-#6
Excerpt: To further investigate the functions of dCK and ATR at the G1/S transition in CEM cells, a non-targeted liquid chromatography mass spectrometry (LC-MS) assay was used to determine the utilization of labeled [^13C6]glucose and [^13C9,^15N3]deoxycytidine, the main substrates for de novo and salvage nucleotide biosynthesis, respectively. Of the 166 metabolites identified in CEM cells treated with VE-822 and/or dCKi, 105 metabolites found in all four treatment groups contained glucose-derived ^13C atoms. […] These metabolites included intermediates such as rUTP, rCTP and rCDP in the de novo dCTP biosynthesis (Fig. 1d). […] However, several deoxyribonucleotides, including dCTP, were below the limit of detection of the non-targeted LC-MS approach, raising the concern that the sensitivity of this assay is not sufficient to measure the contribution of the salvage pathway or the ratio of de novo and salvage biosynthesis to these pools. To address this problem, a newly developed targeted MS assay was developed (Fig. 1e and Supplementary Fig. 3). In this assay, samples containing either extracted dNTPs or hydrolyzed DNA from labeled cells are separated by LC for detection by a triple quadrupole mass spectrometer using multiple reaction monitoring (LC-MS/MS-MRM). The first (Q1) and third (Q3) quadrupoles function as mass filters, while the second (Q2) quadrupole serves as a collision chamber (Fig. 1e). For instance, to profile the biosynthetic composition of deoxycytidine (dC) derived from hydrolyzed DNA or dCTP, an intact, protonated dC ion is selected in Q1, followed by fragmentation of the glycosidic bond, which releases protonated cytosine in Q2, that is filtered in Q3 and detected to generate an ion chromatogram. The peak areas for the ion chromatograms of salvage [^13C9,^15N3]dC (red trace), de novo [^13C5]dC (black trace, from [^13C6]glucose) and unlabeled dC (gray trace) (Fig. 1e) are used to determine the relative contributions of the de novo and salvage routes both to dCTP pools and to DNA-incorporated dCTP.
Cells were transferred into RPMI-1640 without glucose and supplemented with 10% dialyzed FBS (Gibco) containing the following labeled substrates: precursors for de novo [U-^13C6]glucose (Sigma-Aldrich, 389374) at 11 mM; precursors for purine salvage [U-^13C10,^15N5]dA (Cambridge Isotopes, CIL 3896), [^15N5]dA (Cambridge Isotopes, NLM-3895) and [^15N5]dG (Cambridge Isotopes, NLM-3899) at 5 µM or as indicated; and precursors for pyrimidine salvage: [U-^13C9,^15N3]dC (Silantes, 124603602) and [U-^13C10,^15N2]dT (Cambridge Isotopes, CNLM-3902) at 5 µM and [^15N2]orotate (Cambridge Isotopes, NLM-1048) at indicated concentrations. The cells were incubated for 12 h or as indicated before sample collection and processing. […]
Non-targeted LC-MS metabolic assays. 1 x 10^6 cells were washed with ice-cold 150 mM ammonium acetate twice before adding 1 mL of ice-cold 80% methanol with 10 nM norvaline as an internal standard. After vigorous vortexing, samples were centrifuged at maximum speed, the aqueous layer was transferred to a glass vial and the metabolites were dried under vacuum. Metabolites were resuspended in 50 μL 70% acetonitrile (ACN) and 5 μL of this solution used for the mass spectrometer-based analysis. The analysis was performed on a Q Exactive (Thermo Scientific) in polarity-switching mode with positive voltage 4.0 kV and negative voltage 4.0 kV. The mass spectrometer was coupled to an UltiMate 3000RSLC (Thermo Scientific) UHPLC system. Mobile phase A was 5 mM ammonium acetate (NH4AcO), pH 9.9, B was acetonitrile and the separation achieved on a Luna […] NH2 100 A column (150 × 2.0 mm, Phenomenex). The flow was 200 μL/min, and the gradient ran from 15% A to 95% A in 18 min, followed by an isocratic step for 9 min and re-equilibration for 7 min. Metabolites were detected and quantified as area under the curve based on retention time and accurate mass (≤ 3 p.p.m.) using the TraceFinder 3.1 (Thermo Scientific). Relative amounts of […]

[1] = metabolite CDP (KEGG C00112), listed as V
[2] = metabolite CDP-EtA (KEGG C00570), listed as V
[3] = metabolite CMP (KEGG C00055), listed as V
[4] = metabolite CTP (KEGG C00063), listed as V
[5] = metabolite Choline (KEGG C00114), listed as V
[6] = metabolite Cinnamic acid (KEGG C00423), listed as V
[7] = metabolite Cit (KEGG C00158), listed as V
[8] = metabolite Citraconic acid (KEGG C02226), listed as V
[9] = metabolite Creatine (KEGG C00300), listed as V
[10] = metabolite Creatinine (KEGG C00791), listed as V
[11] = metabolite Cytosine (KEGG C00380), listed as V
[12] = metabolite DMG (KEGG C01026), listed as V
[13] = metabolite Dihydroorotate (KEGG C00337), listed as V
[14] = metabolite F16BP (KEGG C00354), listed as V
[15] = metabolite Folate (KEGG C00504), listed as V
[16] = metabolite Fru (KEGG C00095), listed as V
[17] = metabolite Fum (KEGG C00122), listed as V
[18] = metabolite G (KEGG C00387), listed as V
[19] = metabolite dG (KEGG C00330), listed as V
[20] = metabolite dTMP (KEGG C00364), listed as V

In the case of `CNCc1ccc(-c2cc(-c3nc(-c4ccc(S(=O)(=O)C(C)C)cc4)cnc3N)on2)cc1` [VE-822], the “Glucose labeling of CDP” value [1] is reported as 46.58% and 27.42% and 42.30% and 38.55% and 26.25% and 39.84%, the “Relative level of CDP” value [1] is reported as 3.4 and 1.2 and 1.9 and 1.6 and 0.8 and 0.754 and the “Glucose labeling of CDP-EtA” value [2] is reported as 25.10% and 38.04% and 37.00% and 40.76% and 32.59% and 33.65%. The “Relative level of CDP-EtA” value [2] was 0.7 (3×) and 0.9 and 0.744 and 0.633, the “Glucose labeling of CMP” value [3] was 38.36% and 31.49% and 41.31% and 20.57% and 40.83% and 49.90% and the “Relative level of CMP” value [3] was 3.0 and 2.7 and 2.4 and 1.7 and 0.9 and 0.7. The “Glucose labeling of CTP” value [4] was 40.85% and 37.06% and 39.44% and 47.60% and 38.66% and 34.33%, the “Relative level of CTP” value [4] was 1.6 and 0.5 and 0.8 and 0.848 and 0.468 and 0.448 and the “Glucose labeling of Choline” value [5] was 0.00248% (3×) and 0.00264% and 0.0024% and 0.00242%. For the same compound, the “Relative level of Choline” value [5] was 1.2 and 1.3 and 1.4 and 0.849 and 0.8 (2×), the “Glucose labeling of Cinnamic acid” value [6] was 0.00% (5×) and 1.11e-14% and the “Relative level of Cinnamic acid” value [6] was 1.7 and 1.5 and 1.6 and 1.0 (2×) and 0.9. The “Glucose labeling of Cit” value [7] was 50.64% and 47.53% and 49.55% and 44.89% and 45.53% and 45.28%, the “Relative level of Cit” value [7] was 0.9 and 0.6 and 0.7 and 0.47 and 0.449 and 0.454 and the “Glucose labeling of Citraconic acid” value [8] was 0.00% (5×) and -2.22e-14%. The “Relative level of Citraconic acid” value [8] was 1.1 (3×) and 1.6 and 0.8 and 1.0, the “Glucose labeling of Citrulline” value (metabolite Citrulline (KEGG C00327)) was 0.18% and the “Relative level of Citrulline” value (metabolite Citrulline (KEGG C00327), listed as V) was 0.5 and 1.2 (2×) and 2.5 and 0.3 and 0.335. For the same compound, the “Glucose labeling of Creatine” value [9] was 0.000881% and 0.000842% and 0.000971% and 0.000748% and 0.000833% and 0.000956%, the “Relative level of Creatine” value [9] was 1.0 and 1.1 (2×) and 0.8 and 0.9 and 0.852 and the “Glucose labeling of Creatinine” value [10] was 0.000588% and 0.000811% and 0.000818% and 0.000809% and 0.000725% and 0.000748%. The “Relative level of Creatinine” value [10] was 1.0 (3×) and 1.1 and 1.2 and 0.848, the “Glucose labeling of Cystathionine” value (metabolite Cystathionine (KEGG C02291)) was 0.26% and the “Relative level of Cystathionine” value (metabolite Cystathionine (KEGG C02291), listed as V) was 1.0 and 0.182 and 1.1 and 0.2 and 0.4 and 0.251. For the same compound, the “Glucose labeling of Cytosine” value [11] was 0.00381% and 0.000394% and 0.000743% and 0.000956% and 0.000512% and 0.0321%, the “Relative level of Cytosine” value [11] was 1.4 and 1.7 and 3.0 and 5.5 and 1.6 and 0.9 and the “Glucose labeling of DHAP” value (metabolite DHAP (KEGG C00111)) was 100.00%. For the same compound, the “Relative level of DHAP” value (metabolite DHAP (KEGG C00111), listed as V) was 5.8 and 0.3 and 1.3 and 1.2 and 0.2, the “Glucose labeling of DMG” value [12] was 0.0737% and 0.02% and 0.04% and 0.06% and 0.0145% and 0.05% and the “Relative level of DMG” value [12] was 0.7 and 1.3 and 1.0 (2×) and 0.527 and 0.9. For the same compound, the “Glucose labeling of Dihydroorotate” value [13] was 0.55% and 0.92% and 0.10% and 0.96% and 0.80% and 0.09%, the “Relative level of Dihydroorotate” value [13] was 0.9 and 0.7 and 0.8 and 0.754 and 0.5 and 0.468 and the “Glucose labeling of F16BP” value [14] was 97.93% and 88.56% and 94.79% and 95.15% and 79.77% and 75.67%. The “Relative level of F16BP” value [14] was 9.1 and 1.1 and 2.4 and 2.6 and 0.552 and 0.456, the “Glucose labeling of Folate” value [15] was 0.00% (5×) and 100.00% and the “Relative level of Folate” value [15] was 0.546 and 1.0 and 0.5 and 0.4 and 0.9. The “Glucose labeling of Fru” value [16] was 58.79% and 68.43% and 78.80% and 67.26% and 65.64% and 42.97%, the “Relative level of Fru” value [16] was 3.7 and 3.5 and 2.9 and 1.6 and 1.8 and 2.4 and the “Glucose labeling of Fum” value [17] was 15.89% and 14.12% and 10.85% and 10.48% and 12.71% and 7.86%. The “Relative level of Fum” value [17] was 1.3 and 0.8 (2×) and 1.1 and 0.565 and 0.5, the “Glucose labeling of G” value [18] was 0.55% (4×) and 100.00% (2×) and the “Relative level of G” value [18] was 1.1 and 0.852 and 0.9 and 1.6. For the same compound, the “Glucose labeling of dATP” value (metabolite dATP (KEGG C00131)) was 100.00%, the “Relative level of dATP” value (metabolite dATP (KEGG C00131)) was 0.6 and the “Glucose labeling of dCTP” value (metabolite dCTP (KEGG C00458)) was 100.00%. For the same compound, the “Relative level of dCTP” value (metabolite dCTP (KEGG C00458)) was 0.0, the “Glucose labeling of dG” value [19] was 0.38% and 0.48% and 0.49% and 0.0145% and 0.37% and 0.09% and the “Relative level of dG” value [19] was 1.7 (2×) and 1.1 (2×) and 6.1 and 1.0. For the same compound, the “Relative level of dGDP” value (metabolite dGDP (KEGG C00361)) was 61.2, the “Glucose labeling of dGDP” value (metabolite dGDP (KEGG C00361), listed as V) was 100.00% (5×) and 0.38% and the “Glucose labeling of dTMP” value [20] was 0.55% and 100.00% (4×) and 82.28%. The “Relative level of dTMP” value [20] was 0.7 and 6.1 and 3.9 and 1.9 and 0.6 and 0.453, the “Glucose labeling of dTTP” value (metabolite dTTP (KEGG C00459)) was 100.00% and the “Relative level of dTTP” value (metabolite dTTP (KEGG C00459), listed as V) was 0.47 and 0.4. The “Glucose labeling, Leu/Ile” value was 0.00%, the “Glucose labeling, NAD+” value was 0.00% and the “Glucose labeling, P-Creatine” value was 0.0737%. The “Glucose labeling, P-EtA” value was 0.0123%, the “Glucose labeling, PEP” value was 100.00% and the “Glucose labeling, Phe” value was 0.00%. For the same compound, the “Glucose labeling, Pipecolate” value was 0.00%, the “Glucose labeling, Pyr” value was 100.00% and the “Glucose labeling, Sarc (C00213)” value was 0.0369%. For the same compound, the “Glucose labeling, Thr (C00188)” value was 0.00% and the “Glucose labeling, Trigonelline (C01004)” value was 0.00%.
